Results as given in PubChem BioAssay AID1322 (NMMLSC, 2008).
Calls of active or inactive are those of the source. How the calls were made is not given here.

Molecular target: Bcl-2-like protein 1 (Homo sapiens) (UniProt Q07817)
Assay: Bcl-XL binding to Bim peptide disruption – biochemical, multiplexed, bead flow cytometry, human Bcl-XL, dose response (AID 1322); on inhibition: test concentration not given here
Settings: Bead-based flow cytometry, MCF; for inhibition: active compounds read high

Chain of Bcl-2-like protein 1 (Homo sapiens) (Q07817 whole entry, looked up): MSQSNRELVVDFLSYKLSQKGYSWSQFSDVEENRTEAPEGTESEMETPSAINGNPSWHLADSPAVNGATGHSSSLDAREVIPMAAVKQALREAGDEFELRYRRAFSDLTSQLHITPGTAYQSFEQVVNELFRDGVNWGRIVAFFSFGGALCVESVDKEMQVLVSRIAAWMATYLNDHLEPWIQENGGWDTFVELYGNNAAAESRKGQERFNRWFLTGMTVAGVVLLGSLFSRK

| Compound | outcome | inhibition |
| --- | --- | --- |
| BrC(=C\c1ccccc1)/C=N/N1CCN(c2ccccc2)CC1 | inactive |  |
| CC(C)CN1C(=O)/C(=C/c2ccco2)NC1=S |  | inactive |
| O=S1(=O)N=C(N(CCO)/N=C/c2ccncc2)c2ccccc21 |  | inactive |
| CCOC(=O)c1c(NC(C)=O)sc2c(O)c(Br)cc(Br)c12 |  | inactive |
| CCOC(=O)N1CCC(c2cc(=O)n(-c3ccccc3)[nH]2)CC1 | inactive |  |
| CCOc1ccccc1NC(=O)CSc1ccc2nnc(-c3cccnc3)n2n1 |  | inactive |
| CCN(CC)c1ccc(NC(=O)c2ccccc2Br)cc1S(=O)(=O)Nc1ccccc1OC |  | inactive |
| Cc1ccc(S(=O)(=O)N(C)CC(=O)N2CCc3ccccc32)cc1 |  | inactive |
| COc1ccc(CN(C)CC(=O)NC(C)c2ccccc2)c(OC)c1 (centres undefined) |  | inactive |
| Fc1ccccc1-n1cc(-c2ccccc2)[nH]c1=S |  | inactive |
| COc1cc(CNc2ccc(N3CCCC3)cc2)cc(Cl)c1OC |  | inactive |
| CN1N=C(C(=O)N2CCCC(C(=O)c3cccc(C(F)(F)F)c3)C2)CCC1=O (centres undefined) |  | inactive |
| COc1c(F)c(F)c(C(=O)Nc2ccccc2N2CCN(C(=O)C(C)C)CC2)c(F)c1F |  | inactive |
| Cc1nnc(Sc2cc(NCCO)c([N+](=O)[O-])c3nonc23)s1 |  | inactive |
| COc1ccc(OC)c(NC(=O)CCCN2C(=S)NC(C)(C)CC2C)c1 (centres undefined) | inactive |  |
| O=[N+]([O-])c1ccc2[nH]nc(-c3ccccc3)c2c1 | inactive |  |
| COc1ccc(C)cc1Nc1ccc(C(=O)O)cc1[N+](=O)[O-] | inactive |  |
| COC(=O)CSc1ncnc2c1sc1nc(-c3ccco3)c3c(c12)CC(C)(C)OC3 |  | inactive |
| Cc1ccc(/C=C2\CCCC3=C2NC(=S)NC3c2ccc(C)cc2)cc1 (centres undefined) |  | inactive |
| O=C(O)c1ccc(NS(=O)(=O)c2ccc3c(c2)C(=O)c2ccccc2C3=O)cc1 |  | inactive |
| Nc1ccc(Nc2nc(-c3ccncc3)cs2)cc1 |  | inactive |
| O=C(c1cnccn1)N1CCN(c2ccccc2F)CC1 |  | inactive |
| CCN(CC)c1ccc(-c2nn3c(-c4n[nH]c5c4CCC5)nnc3s2)cc1 |  | inactive |
| CCOC(=O)c1cccc(Nc2ncnc3ccccc23)c1 |  | inactive |
| CC1=CC(=O)c2ccccc2C1=O |  | inactive |
| O=C(NC1=NCCS1)NC12CC3CC(CC(C3)C1)C2 |  | inactive |

| Compound | outcome | inhibition |
| --- | --- | --- |
| Cc1ccc(-c2cc(-c3ccc(C)o3)nc(N)c2C#N)cc1 |  | inactive |
| CCN1CCN(c2cc(C)c3cc(NC(=S)N4CCN(c5ccccc5)CC4)ccc3n2)CC1 |  | inactive |
| CNc1ccc(Br)cc(C(=O)/C=C/c2ccc(OC)cc2)c1=O |  | inactive |
| CC(/C=C/C(=O)c1ccc(C)cc1)=C\c1ccccc1 |  | inactive |
| C1=CC2c3ccccc3NC(c3ccncc3)C2C1 (centres undefined) |  | inactive |
| CN(C)c1ncc(C2=C(Cl)C(=O)C(N3CCCC3)=C(Cl)C2=O)s1 |  | inactive |
| CC(=O)Nc1ccc2nc(CN3CCN(CC(C)C)C(CCO)C3)ccc2c1 (centres undefined) | inactive |  |
| Cc1ccc(C2=N/C(=C/c3cccs3)C(=O)N2Nc2ccccc2)cc1 |  | inactive |
| Cc1cc(C)nc(SCc2cc(=O)c(OC(=O)c3cccc([N+](=O)[O-])c3)co2)n1 |  | inactive |
| CCOc1c(Cl)cc(CNc2ccc(N3CCCC3)cc2)cc1OC |  | inactive |
| COC(=O)c1c(NC(=O)COc2ncnc3ccccc23)sc(C)c1C |  | inactive |
| COc1ccccc1Cn1nnc2c(=O)[nH]c(C3CCN(C(=O)c4ccc(C)cc4)CC3)nc21 |  | inactive |
| Cc1ccccc1-n1nc(SCC(=O)O)sc1=S |  | inactive |
| O=C(O)c1cccc(NC2=C(Cl)C(=O)c3ccccc3C2=O)c1 | inactive |  |
| O=c1[nH]c(SCc2nc3ccccc3c(=O)n2-c2ccccc2C(F)(F)F)nc2ccccc12 |  | inactive |
| O=C(NCCCO)Nc1ccc2nc(-c3ccco3)c(-c3ccco3)nc2c1 |  | inactive |
| Cc1ccc(NC(=S)N2CCn3cccc3C2c2cccnc2)cc1 (centres undefined) | inactive |  |
| Cc1ccc2c(c1)c(C)c(C)n2CC(O)Cn1nc(C)c(Br)c1C (centres undefined) |  | inactive |
| Cc1ccc(-c2cc(C(=O)OCC(=O)N(C)C3CCS(=O)(=O)C3)c3ccccc3n2)o1 (centres undefined) |  | inactive |
| O=C(CSc1nc2ccsc2c(=O)n1Cc1ccc(C(=O)O)cc1)NCC1CCCO1 (centres undefined) |  | inactive |
| CCCCc1ccc(NC(=S)NCc2ccc(OC)cc2)cc1 | inactive |  |
| Oc1ccc(NCc2ccccc2OCc2ccccc2)cc1 | inactive |  |
| N#C/C(=C(/O)CN1CCN(c2ccccc2F)CC1)c1nc(-c2ccccc2)cs1 |  | inactive |
| Cc1nn(-c2ccc(Cl)cc2)c(Cl)c1/C=C(\C#N)C(N)=O |  | inactive |
| Cn1c(OCc2cccnc2)nc2c1c(=O)n(Cc1ccccc1)c(=O)n2C |  | inactive |
| CCOc1ccc(C(=O)Nc2nnn(CC)n2)cc1 |  | inactive |

| Compound | outcome | inhibition |
| --- | --- | --- |
| CCN1CCN(c2cc(C)c3cc(NC(=S)N4CCCCC4)ccc3n2)CC1 |  | inactive |
| COC(=O)C1C2c3ccccc3OC1(C)N=c1s/c(=C/c3cnn(C)c3C)c(=O)n12 (centres undefined) |  | inactive |
| CCOC(=O)C1(Cc2cccc(OC)c2)CCN(Cc2cccc(OC)c2OC)CC1 | inactive |  |
| COc1ccc(NC(=O)Cc2c(F)cccc2Cl)c(OC)c1 |  | inactive |
| COc1ccc(NC(=O)c2ccco2)cc1NC(=O)c1ccco1 |  | inactive |
| COc1ccc(S(=O)(=O)NCCSc2ccccc2)cc1OC |  | inactive |
| COc1ccc(N2CCN(CCCNC(=O)CCCn3c(=O)[nH]c4ccsc4c3=O)CC2)cc1 |  | inactive |
| Cc1cccc(Nc2nc(-c3ccncc3)cs2)c1 |  | inactive |
| COc1cc(N=c2ssnc2Cl)c(OC)cc1Cl |  | inactive |
| Oc1ccc(C=NCC2COc3ccccc3O2)cc1 (centres undefined) |  | inactive |
| CC(NC(=O)Nc1ccccn1)N1C(=O)C2C3C=CC(C3)C2C1=O (centres undefined) |  | inactive |
| CN(Cc1ccccc1)C(=O)c1[nH]cnc1C(=O)N[C@@H](CCCCNC(=O)OC(C)(C)C)C(=O)OC(C)(C)C |  | inactive |
| Nc1ccccc1N=c1ssnc1Cl |  | inactive |
| CN(C)C(=O)N1CCC(C(=O)NC2CCCCCCC2)CC1 |  | inactive |
| COC(=O)c1sc2nc[nH]c(=O)c2c1C |  | inactive |
| Cc1cccc(NC(=S)N2CCn3cccc3C2c2cccnc2)c1 (centres undefined) |  | inactive |
| Clc1ccc2c(N/N=C/c3cccc(Br)c3)ccnc2c1 |  | inactive |
| CC1(C)CC(NC(=O)COc2ccc([N+](=O)[O-])cc2)CC(C)(C)N1 |  | inactive |
| NC(=O)CSc1nnc(Cn2cnc3ccccc32)o1 |  | inactive |
| Cc1ccccc1-c1nc(-c2ccc(NC(=O)c3ccc4c(c3)OCO4)cc2)no1 |  | inactive |
| CCOc1ccc(CNc2ccc(N3CCCC3)cc2)cc1 |  | inactive |
| Cc1ccc(C)n1-c1cccc(C(=O)O)c1 |  | inactive |
| CC(C)(C)C(=O)NC(NC(=S)Nc1ccc(S(N)(=O)=O)cc1)C(Cl)(Cl)Cl (centres undefined) |  | inactive |
| O=C(C1CCC(Cn2c(=S)[nH]c3ccccc3c2=O)CC1)N1CCN(c2ccccn2)CC1 (centres undefined) | inactive |  |
| CC(=O)N1CCN(C(=O)c2ccc(-n3c(C)ccc3C)cc2)CC1 |  | inactive |
| CN(CCc1ccccn1)C(=O)CCC1CCCN(C(=O)NC2CCCCC2)C1 (centres undefined) | inactive |  |

| Compound | outcome | inhibition |
| --- | --- | --- |
| Cc1ccc(-c2ccc(CCC(=O)O)n2NC(=O)c2cccs2)cc1 |  | inactive |
| COc1ccc(N2CCN(C(CNS(=O)(=O)c3ccc4c(c3)OCCO4)c3ccco3)CC2)cc1 (centres undefined) | inactive |  |
| CCN(CC)c1ccc(NC(=O)COc2ccccc2C#N)cc1S(=O)(=O)Nc1ccccc1OC |  | inactive |
| COc1cc(/C=C2\SC(=S)NC2=O)ccc1OS(=O)(=O)c1ccccc1 |  | inactive |
| O=C(NCc1ccccc1)c1ccc2nc(-c3ccco3)c(-c3ccco3)nc2c1 |  | inactive |
| CCSc1ncc(Cl)c(C(=O)Nc2sc3c(c2C(=O)NCc2cccnc2)CCCC3)n1 |  | inactive |
| CCOC(=O)c1cc2c(=O)n3ccccc3nc2n(Cc2ccco2)c1=NC(=O)c1ccccc1OC | inactive |  |
| O=C(Nc1ccc2nc(-c3ccco3)c(-c3ccco3)nc2c1)NC1CC1 |  | inactive |
| O=C(COc1ccccc1Br)NCc1ccccn1 |  | inactive |
| CCC(=O)NC(c1ccc(C)cc1)c1cc([N+](=O)[O-])c2cccnc2c1O (centres undefined) |  | inactive |
| CCCC1(C(=O)OCC)NC(c2cc(OC)c(OC)c(OC)c2)C2C(=O)N(CC)C(=O)C21 (centres undefined) |  | inactive |
| Cc1[nH]n(C(N)=S)c(=O)c1N=Nc1ccc(S(=O)(=O)N2CCCCCC2)cc1 |  | inactive |
| O=C(NNC(=O)C12CC3CC(CC(C3)C1)C2)c1ccco1 | inactive |  |
| COc1cc(C=Nc2cccc(C)c2)c(O)c([N+](=O)[O-])c1 |  | inactive |
| Cc1ccc(O)c(NC2=C(Cl)C(=O)N(Cc3ccccc3)C2=O)c1 |  | inactive |
| CCOc1ccc2nc(SCC(=O)N3c4ccccc4Sc4ccccc43)c(C#N)cc2c1 |  | inactive |
| Cc1cc(C)cc(NS(=O)(=O)c2ccc3c(c2)c(=O)n(C)c(=O)n3C)c1 |  | inactive |
| Cc1cccn2c(=O)c3cc(C(N)=S)c(=N)n(CCCN4CCOCC4)c3nc12 |  | inactive |
| Cc1cc(Cl)ccc1N=c1ssnc1Cl |  | inactive |
| CCOC(=O)c1[nH]cnc1C(=O)NC(C)C |  | inactive |
| Cc1cc(C)c(S(=O)(=O)/N=C2/C=C(SCC(=O)O)C(=O)c3ccccc32)cc1C |  | inactive |
| CC1Nc2ccccc2C(=O)N1NS(C)(=O)=O (centres undefined) |  | inactive |
| Cc1cc2nn(-c3cccc4ccccc34)nc2cc1N |  | inactive |
| CC(C)C(=O)NC(c1ccccc1)c1cc([N+](=O)[O-])c2cccnc2c1O (centres undefined) | inactive |  |
| CC1(C)SC(=S)N(NC(=O)Nc2ccccc2)C1N(O)C(=O)Nc1cccc2ccccc12 (centres undefined) |  | inactive |
| Cc1ccc(C(=O)N(CCCN(C)C)c2nc3ccc(Cl)cc3s2)cc1C | inactive |  |
